Source: patent US8410118B2, “Inhibitors of fatty acid uptake and methods of use” (NUtech Ventures, priority 2009, dated 2013)
Where two headings read alike, the source gives them in different places.

Legend:
Caco-2 cells [1] = test: C1-BODIPY-C12 fatty acid uptake (transport) inhibition in Caco-2 cells; type: cell-based, human; conditions: for % Transport Standard Assay: compound at f.c. 40 μM, Caco-2 cells, control = 100, mean ± SD of 3-5 experiments
Text: The Caco-2 cell line is derived from a human adenocarcinoma and is able to undergo differentiation into polarized epithelial cells that show a brush border phenotype and form well-developed and functional tight junction complexes [Fogh et al., J. Natl. Cancer Inst., 1977, 59:221-6; Grasset et al., Am. J. Physiol., 1984, 247:C260-7]. This cell line is used as an in vitro model to predict human intestinal absorption and secretion [Hilgers et al., Pharm. Res., 1990, 7:902-10]. Caco-2 cells were maintained in Earl's minimal essential medium (MEM) with 20% FBS in a 95% air 5% CO2 atmosphere at 37° C., as previously described [Sandoval et al., Arch. Biochem. Biophys., 2008, 477:363-71]. For growth and differentiation, the BD Biosciences Intestinal Epithelium Differentiation Media Pack was used. Cells were plated in basal seeding medium at a density of 2.5×10^5 cells/cm^2 on a collagen-coated black-clear 96-well plate (BD Biosciences). After 72 h in culture, the basal seeding medium was removed and Entero-STIM medium was added to each well. Both media contained mito-serum extender. After another 24 h, cells were serum-starved for one hour in MEM without phenol red prior to performing the C1-BODIPY-C12 uptake assay. HepG2 cells (ATCC, HB-8065) were cultured according to the ATCC protocol. The cells were seeded in 96-well collagen coated plates at a seeding density of 2.5×10^5 cells/cm^2. […] For differentiation into adipocytes, 3T3-L1 cells were treated with methylisobutylxanthine (0.5 mM), dexamethasone (1.0 μM), and insulin (1.75 μM) in DMEM and 10% FBS for 48 hours as described by Student et al. [Student et al., J. Biol. Chem., 1980, 255:4745-50]. After 48 hour incubation with differentiation medium, cells were treated with DMEM and 10% FBS supplemented with insulin (1.75 μM) for 48 hours. Cells were subsequently maintained in DMEM and 10% FBS for an additional 3-6 days until fully differentiated. The number of cells per well in screening trials were determined using the FluoReporter® Blue Fluorometric DNA Quantitation Kit from Invitrogen.
Caco-2 cells were plated in basal seeding medium at a density of 2.5×10^5 cells/cm^2 in collagen-coated 96-well plates, and differentiated as detailed above. HepG2 cells were cultured in EMEM. Differentiated 3T3-L1 adipocytes were maintained in modified DMEM and 10% FBS. After another 24 h, cells were serum-starved for 1 h in MEM without phenol red prior to performing the C1-BODIPY-C12 transport assay [Sandoval et al., Arch. Biochem. Biophys., 2008, 477:363-71; Arias-Barrau et al., Methods Mol. Biol., 2009, 580:233-49]. In a standard reaction, serum-free MEM was removed from the wells and 50 μL of the test compound in MEM (MEM alone for controls) were added to each well and incubation was continued for 1 h. Then 50 μL of C1-BODIPY-C12 mixture (final concentrations 5 μM C1-BODIPY-C12; 5 μM FAF BSA; 1.97 mM trypan blue) was added to each well, and uptake was allowed to take place for 15 min. Cell-associated fluorescence was measured as detailed above. […] Ligand competition curves were fit by nonlinear least-squares regression using one-site competition and dose-response models and Prism software (GraphPad software, Inc., San Diego, Calif.) in order to determine the compound concentration that reduced C1-BODIPY-C12 fluorescence readout by 50% (IC50). Ki values were calculated from the IC50 using the equation of Cheng and Prusoff as detailed in Li et al. [J. Lipid Res., 2008, 49:230-44] and KT values published by Sandoval et al. [Sandoval et al., Arch. Biochem. Biophys., 2008, 477:363-71].

Caco-2 cells [2] = test: Glucose analogue 2-NBDG uptake into Caco-2 cells; type: cell-based, human; conditions: differentiated Caco-2 cells
Protocol: To assess the impact of selected compounds upon glucose transport, Caco-2 cells were seeded and differentiated in 96-well collagen coated plates as detailed above and incubated for 1 h with compound diluted in PBS. […] Cells were incubated 30 min at 37° C., 5% CO2 to allow uptake. The medium was removed by aspiration and cells were rinsed once with 100 μL, of PBS.

[3] = test system: long chain acyl-CoA synthetase (Acsl); test: Oleoyl-CoA synthetase (Acsl) activity in Caco-2 cell extracts after compound treatment; type: biochemical, human; conditions: Caco-2 cells pretreated 1 h; for oleoyl CoA synthetase activity: activity in total cell extracts
Protocol: Caco-2 cells were grown and differentiated in 60 mm collagen coated dishes (at a seeding density 2.5×10^5 cells/cm^2). Following growth and differentiation as detailed above, cells were serum starved for 1 h in MEM and then were treated for 1 h with selected compounds at specified final concentrations. The media was subsequently removed by aspiration and cells washed once with 5 mL PBS, trypsinized using standard procedures and collected by centrifugation. The cell pellet was resuspended in 1 mL STE lysis buffer (10 mM Tris-HCl (pH 8.0); 0.1M NaCl; 1 mM EDTA) and sonicated on ice for 2 min using 3 sec on/off pulses. […] In parallel experiments, untreated cells were used to prepare the cell extract for Acsl activity measurements where the compound of interest was added directly to the reaction mixture.
Acyl-CoA formed during the reaction remained in the aqueous fraction and was quantified by scintillation counting. Data were expressed as nmol oleoyl CoA formed/min/mg protein.

Caco-2 cells [4] = test: MTT cytotoxicity assay in Caco-2 cells
Protocol: The MTT [3-(4,5-dimethylthiazol-2-yl)-2,5-diphenyltetrazolium bromide] assay was used to determine if compounds of interest were cytotoxic to Caco-2 cells [Mosmann, J. Immunol. […] Cells were cultured and differentiated as detailed above in collagen-coated 96-well plates. Cells were incubated at 37° C., 5% CO2 for at least one hour and up to 72 h in MEM containing the appropriate dilution of compound. Following this incubation period, the media with compound was removed and 110 μL, of MTT reagent (prepared in MEM (final concentration 0.45 mg/mL MTT)) was added. After a 3 h incubation period, the reaction was terminated by the addition of 150 μL, stop buffer (0.01N HCl in 10% SDS). The plates were incubated for 1 h at 37° C. to facilitate solubilization of formazan crystals; color development was read at A570.

HepG2 cells = test: C1-BODIPY-C12 fatty acid uptake inhibition in HepG2 cells; type: cell-based
Protocol: (§1) This cell line is used as an in vitro model to predict human intestinal absorption and secretion [Hilgers et al., Pharm. […] For growth and differentiation, the BD Biosciences Intestinal Epithelium Differentiation Media Pack was used. Cells were plated in basal seeding medium at a density of 2.5×10^5 cells/cm^2 on a collagen-coated black-clear 96-well plate (BD Biosciences). After 72 h in culture, the basal seeding medium was removed and Entero-STIM medium was added to each well. Both media contained mito-serum extender. After another 24 h, cells were serum-starved for one hour in MEM without phenol red prior to performing the C1-BODIPY-C12 uptake assay. […] The cells were seeded in 96-well collagen coated plates at a seeding density of 2.5×10^5 cells/cm^2. […] Cells were subsequently maintained in DMEM and 10% FBS for an additional 3-6 days until fully differentiated. The number of cells per well in screening trials were determined using the FluoReporter® Blue Fluorometric DNA Quantitation Kit from Invitrogen.
(§2) Caco-2 cells were plated in basal seeding medium at a density of 2.5×10^5 cells/cm^2 in collagen-coated 96-well plates, and differentiated as detailed above. HepG2 cells were cultured in EMEM. Differentiated 3T3-L1 adipocytes were maintained in modified DMEM and 10% FBS. After another 24 h, cells were serum-starved for 1 h in MEM without phenol red prior to performing the C1-BODIPY-C12 transport assay [Sandoval et al., Arch. […] In a standard reaction, serum-free MEM was removed from the wells and 50 μL of the test compound in MEM (MEM alone for controls) were added to each well and incubation was continued for 1 h. […] Cell-associated fluorescence was measured as detailed above.

3T3-L1 adipocytes = test: C1-BODIPY-C12 fatty acid uptake inhibition in 3T3-L1 adipocytes; type: cell-based
Protocol: as §1, §2

[5] = Homo sapiens, Caco-2, Table 4, derived from laboratory data, read-out: IC50 (μM ± SE)
[6] = Homo sapiens, Table 3, structurally related compounds in Caco-2 cells, read-out: IC50
[7] = Table 3, structurally related compounds in Caco-2 cells, read-out: IC50
[8] = Table 4, derived from laboratory data, read-out: IC50 (μM ± SE)
[9] = C1-BODIPY-C12 uptake, average of 3 experiments ± SEM, read-out: Caco-2 IC50

| IC50 (Caco-2 cells [1]; [5]) [µM] | IC50 (Caco-2 cells [1]; [7]) [µM] | IC50 (Caco-2 cells [1]; [8]) [µM] | SMILES | glucose (2-NBDG) transport (Caco-2 cells [2]; 20 μM) | oleoyl CoA synthetase activity [3] | cellular toxicity (MTT, mitochondrial function) (Caco-2 cells [4]; 50 μM for 24 h) | % Transport Standard Assay (Caco-2 cells [1]) [%] | also measured |
| --- | --- | --- | --- | --- | --- | --- | --- | --- |
| 6.66 ± 0.64 | – | – | O=C1C=CC=CC1=C1NNC2(S1)C(=O)Nc1ccc(Br)cc12 (stereo not shown) [IV-1, 5′-bromo-5-(6-oxocyclohexa-2,4-dien-1-ylidene)spiro[1,3,4-thiadiazolidine-2,3′-1H-indole]-2′-one] | not affected | not reduced | not toxic | 27 ± 1 | – |
| – | 4.84 ± 0.69 | 4.84 ± 0.69 | O=C1Nc2ccc(Br)cc2C12CN=C(c1ccccc1)S2 (stereo not shown) [IV-3] | – | – | – | – | – |
| – | – | – | COc1cc(/C=C2/SC(=S)N(c3cccc(F)c3)C2=O)cc(Br)c1O [Compound I-4] | – | – | – | – | IC50 (Caco-2 cells [1]; [6]): 4.7 ± 0.8 µM |
| – | 11.9 ± 1.43 | 11.9 ± 1.43 | O=C1Nc2ccccc2C12CN=C(c1ccccc1O)S2 (stereo not shown) [IV-2] | – | – | – | – | – |
| 4.93 ± 0.4 | – | – | Oc1c(C2=NCCNC(C(F)(F)F)=C2)ccc2ccccc12 [III-1, 2-[7-(trifluoromethyl)-2,3-dihydro-1H-1,4-diazepin-5-yl]naphthalen-1-ol] | not affected | not reduced | not toxic | 35 ± 1 | IC50 (HepG2 cells; Homo sapiens, HepG2): 6.72 ± 0.81 µM; IC50 (3T3-L1 adipocytes; Mus musculus, 3T3-L1): 52.5 ± 6.7 µM |
| – | 6.34 ± 0.93 | 6.34 ± 0.93 | O=c1cc(-c2ccc([N+](=O)[O-])cc2)[nH]c2c(-c3ccc(Cl)cc3)c(Cc3ccccc3)nn12 [II-1, 2-benzy1-3-(4-chloropheny1)-5-(4-nitropheny1)-1H-pyrazolo[5,1-b]pyrimidin-7-one] | not affected | not reduced | not toxic | 54 ± 1 | IC50 (HepG2 cells): 10.2 ± 1.26 µM; IC50 (3T3-L1 adipocytes): 901 ± 205 µM; IC50 (Caco-2 cells [1]; [9]): 6.34 ± 0.93 µM |
| – | – | – | OCC(CCc1c[nH]c2ccccc12)c1c[nH]c2ccccc12 (stereo not shown) [Compound V-1, 2,4-bis(1H-indol-3-yl)butan-1-ol] | – | not reduced | – | 52 ± 2 | IC50 (HepG2 cells; Homo sapiens, HepG2): 84.1 ± 14.1 µM; IC50 (3T3-L1 adipocytes; Mus musculus, 3T3-L1): 143 ± 22.4 µM; glucose (2-NBDG) transport (Caco-2 cells [2]; 50 μM): reduced 2-NBDG transport slightly; cellular toxicity (MTT, mitochondrial function) (Caco-2 cells [4]; 100 μM for 24 h): not toxic; IC50 (Caco-2 cells [1]; Homo sapiens, Caco-2, C1-BODIPY-C12 uptake, average of 3 experiments ± SEM, read-out: Caco-2 IC50): 29.2 ± 3.64 µM |

| SMILES | IC50 (Caco-2 cells [1]; [5]) [µM] | IC50 (Caco-2 cells [1]; [7]) [µM] | IC50 (Caco-2 cells [1]; [8]) [µM] | glucose (2-NBDG) transport (Caco-2 cells [2]; 20 μM) | oleoyl CoA synthetase activity [3] | cellular toxicity (MTT, mitochondrial function) (Caco-2 cells [4]; 50 μM for 24 h) | % Transport Standard Assay (Caco-2 cells [1]) [%] | also measured |
| --- | --- | --- | --- | --- | --- | --- | --- | --- |
| COc1cc(/C=C2/SC(=S)N(c3cccc(Cl)c3)C2=O)ccc1O [Compound I-2] | 121 ± 25.4 | – | – | – | – | – | – | IC50 (Caco-2 cells [1]; [6]): 121 ± 25 µM |
| COc1cc(/C=C2/SC(=S)N(c3cccc(Cl)c3)C2=O)cc(Br)c1O [Compound I-1, (5E)-5-[(3-bromo-4-hydroxy-5-methoxyphenyl)methylene]-3-(3-chloropheny1)-2-thioxothiazolidin-4-one] | – | 3.99 ± 0.32 | 3.99 ± 0.32 | not affected | – | – | 46 ± 3 | IC50 (HepG2 cells): 7.55 ± 1.23 µM; IC50 (3T3-L1 adipocytes): 231 ± 33.5 µM; inhibition of oleoyl CoA synthetase activity ([3]; 50 μM (10 times the IC50)): about 50%; IC50 (Caco-2 cells [1]; [9]): 3.99 ± 0.32 µM |
